Results published in patent US6355642B1, “Tetrahydrobenzindole compounds” (Meiji Seika Kaisha, Ltd., priority 1996, dated 2002).
Where two headings read alike, the source gives them in different places.

How the values were obtained:
[1] = target: T1, 5-HT2 receptor (Rattus norvegicus, UniProt P14842); assay: Binding affinity for 5-HT2 receptor ([3H]ketanserin displacement, rat cerebral cortex P2 fraction); settings: 1 nM [3H]ketanserin, Ki calculated from IC50
T1 construct: the thus obtained precipitate was used as P2 fraction; from tissue; host or cells: rat cerebral cortex, P2 membrane fraction
T1 sequence (P14842 whole entry): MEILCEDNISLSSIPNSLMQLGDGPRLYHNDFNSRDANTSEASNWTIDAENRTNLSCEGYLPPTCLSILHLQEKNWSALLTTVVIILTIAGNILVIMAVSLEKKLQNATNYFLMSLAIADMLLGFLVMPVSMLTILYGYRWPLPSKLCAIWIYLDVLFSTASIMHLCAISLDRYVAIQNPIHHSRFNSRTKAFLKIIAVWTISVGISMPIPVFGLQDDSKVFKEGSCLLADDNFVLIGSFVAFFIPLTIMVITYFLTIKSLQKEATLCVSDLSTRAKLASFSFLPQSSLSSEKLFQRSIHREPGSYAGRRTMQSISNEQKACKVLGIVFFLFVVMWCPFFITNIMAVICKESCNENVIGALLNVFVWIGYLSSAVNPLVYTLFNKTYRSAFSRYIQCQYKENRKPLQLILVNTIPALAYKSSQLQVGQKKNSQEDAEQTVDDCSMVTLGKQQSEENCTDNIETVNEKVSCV
Description: Binding Affinity for 5-HT2 receptor
Rat cerebral cortex was homogenized in 10 volumes of 0.32 M sucrose solution and centrifuged for 10 minutes at 900×g, and the resulting supernatant fluid was again centrifuged for 20 minutes at 11,500×g. The thus obtained precipitate was re-suspended in […] Tris-HCl (pH 7.4) buffer and centrifuged for 20 minutes at 39,900×g, and the thus obtained precipitate was used as P2 fraction. The P2 fraction was incubated at 37° C. for 15 minutes in 50 mM Tris-HCl (pH 7.4) buffer containing 1 nM of [^3H] ketanserin and each of the compounds of the present invention and then filtered after the reaction using Whatman GF/B glass filter. The ^3H radioactivity on the filter was measured using a liquid scintillation counter. Non-specific binding was determined in the presence of 10 μM ketanserin, and the specific binding was calculated based on the difference. IC50 value of each compound was determined by non-linear least square regression analysis, and dissociation constant Ki was calculated from the value. The dissociation constant of 5-HT2 obtained by this test, dissociation constant of 5-HT7 obtained in Test Example 1 and their ratio are shown in the following table. As is evident from the results shown in the following table, compounds of the present invention show their affinity for 5-HT2 receptor too, but they bind more selectively to 5-HT7 receptor.

[2] = target: T2, human serotonin 5-HT7 receptor subtype (Homo sapiens, UniProt P34969); assay: Binding affinity for 5-HT7 receptor ([3H]-5-CT displacement, membrane fraction of expressing cells)
T2 construct: expressed in transfected cells
T2 sequence (P34969 whole entry): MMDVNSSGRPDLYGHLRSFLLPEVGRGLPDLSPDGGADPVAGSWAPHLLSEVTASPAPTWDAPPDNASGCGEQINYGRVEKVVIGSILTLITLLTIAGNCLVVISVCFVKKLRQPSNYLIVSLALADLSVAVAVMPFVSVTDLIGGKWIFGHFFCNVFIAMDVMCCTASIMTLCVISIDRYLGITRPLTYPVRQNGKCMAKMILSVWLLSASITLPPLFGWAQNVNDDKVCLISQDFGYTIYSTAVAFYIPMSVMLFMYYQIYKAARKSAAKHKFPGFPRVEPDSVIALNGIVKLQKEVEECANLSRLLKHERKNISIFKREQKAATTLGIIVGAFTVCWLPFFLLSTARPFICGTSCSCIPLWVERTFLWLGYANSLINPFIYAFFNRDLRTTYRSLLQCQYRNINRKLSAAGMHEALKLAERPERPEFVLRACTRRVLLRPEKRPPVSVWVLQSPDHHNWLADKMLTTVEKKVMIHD
Description: Binding Affinity for 5-HT7 Receptor
Cultured cells capable of expressing human serotonin 5-HT7 receptor subtype were collected in an assay buffer (50 mM Tris-HCl, pH 7.4, containing […], 0.2 mM EDTA, 0.001% pargyline and 0.1% ascorbic acid) and homogenized with a Potter type homogenizer. Then the membrane fraction was subjected to 20 minutes of centrifugation at 39,000 g and at 4° C. The thus obtained pellet was re-suspended in 1 ml (per cells per one culture dish of 10 cm in diameter) of the assay buffer and homogenized again. This test was carried out on 1 nM in final concentration of [^3H]-5-CT (carboxamide triptamine) and 1 to 1, 000 nM of the compounds of Examples 1 to 90 represented by the general formula (I). A 100 μl of the membrane fraction was added to the reaction tube, final assay volume was adjusted to 500 μl, and the reaction was carried out by incubating the medium at 37° C. for 15 minutes. The incubation was terminated by quickly filtering the reaction system on a GF/B filter which was subsequently washed with 6 ml of cold 50 mM Tris-HCl (pH 7.4). Radioactivity was measured using Packard liquid scintillation counter. Non-specific binding was determined by 10 μM metergoline, and the specific binding was calculated based on the difference. IC50 value of each compound was determined by non-linear least square regression analysis, and dissociation constant Ki was calculated from the value.

[3] = human 5-HT7 expressing cultured cells, 1 nM [3H]-5-CT, Ki calculated from IC50, read-out: Ki (nM) of 5-HT7

| SMILES | Ki [1] | Ki [2, 3] | Ki [2] | 5-HT2/5-HT7 ([2]; ratio of dissociation constants Ki 5-HT2 / Ki 5-HT7) |
| --- | --- | --- | --- | --- |
| COc1ccccc1N1CCN(CCCCC23CCCc4cccc(c42)NC3=O)CC1 (stereo not shown) [Compound 5, 2a-[4-{4-(2-Methoxyphenyl)piperazinyl}butyl]-2a,3,4,5-tetrahydrobenz[cd]indole-2(1H)-one] | 61 nM | 8.9 nM | – | – |
| COC1(c2ccccc2)CCN(CCCCC23CCCc4cccc(c42)NC3=O)CC1 (stereo not shown) [Compound 56, 2a-[4-(4-Methoxy-4-phenyl-piperidyl)butyl]-2a,3,4,5-tetrahydrobenz[cd]indole-2(1H)-one] | 414 nM | – | 27 nM | – |
| O=C1Nc2cccc3c2C1(CCCCN1CCN(c2ccccn2)CC1)CCC3 (stereo not shown) [Compound 87, 2a-[4-{4-(^2-Pyridyl)piperazinyl}butyl]-2a,3,4,5-tetrahydrobenz[cd]indole-2(1H)-one] | 120 nM | 11 nM | – | 11.0 |
